Legend:
human RIPK1 = human RIPK1 (Homo sapiens (Human), UniProt Q13546); experiment: KINOMEscan binding assay, human RIPK1; conditions: equilibrium dissociation constant
Summary of the method: (§1)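 KINOMEscan competition binding using kinase-tagged T7 phage or HEK-293-produced DNA-tagged protein captured on ligand beads, with eluted protein quantified by qPCR. Compounds were run as an 11-point 3-fold series, top 30,000 nM, in 1% DMSO. Kd was fitted with the Hill equation, slope fixed at −1.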

human MLKL (full length) = human MLKL (full length) (Homo sapiens (Human), UniProt Q8NB16); experiment: KINOMEscan binding assay, human MLKL (full length); conditions: equilibrium dissociation constant
human MLKL (full length), sequence (Q8NB16 whole entry): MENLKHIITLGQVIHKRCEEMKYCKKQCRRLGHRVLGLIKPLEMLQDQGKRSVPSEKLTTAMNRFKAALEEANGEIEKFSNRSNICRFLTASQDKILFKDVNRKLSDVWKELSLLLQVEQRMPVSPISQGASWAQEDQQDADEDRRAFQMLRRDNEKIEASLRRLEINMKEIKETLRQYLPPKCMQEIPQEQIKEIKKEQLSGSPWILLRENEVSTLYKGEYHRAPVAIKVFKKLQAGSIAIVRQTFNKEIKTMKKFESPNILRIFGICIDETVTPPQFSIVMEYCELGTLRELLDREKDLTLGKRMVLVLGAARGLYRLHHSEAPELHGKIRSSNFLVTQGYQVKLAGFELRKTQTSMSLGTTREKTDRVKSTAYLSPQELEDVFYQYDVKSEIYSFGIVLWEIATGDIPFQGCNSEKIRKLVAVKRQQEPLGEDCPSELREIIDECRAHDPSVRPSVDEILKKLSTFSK
Summary of the method: as §1

human RIPK3 = human RIPK3 (Homo sapiens (Human), UniProt Q9Y572); experiment: KINOMEscan binding assay, human RIPK3; conditions: equilibrium dissociation constant
human RIPK3, sequence (Q9Y572 whole entry): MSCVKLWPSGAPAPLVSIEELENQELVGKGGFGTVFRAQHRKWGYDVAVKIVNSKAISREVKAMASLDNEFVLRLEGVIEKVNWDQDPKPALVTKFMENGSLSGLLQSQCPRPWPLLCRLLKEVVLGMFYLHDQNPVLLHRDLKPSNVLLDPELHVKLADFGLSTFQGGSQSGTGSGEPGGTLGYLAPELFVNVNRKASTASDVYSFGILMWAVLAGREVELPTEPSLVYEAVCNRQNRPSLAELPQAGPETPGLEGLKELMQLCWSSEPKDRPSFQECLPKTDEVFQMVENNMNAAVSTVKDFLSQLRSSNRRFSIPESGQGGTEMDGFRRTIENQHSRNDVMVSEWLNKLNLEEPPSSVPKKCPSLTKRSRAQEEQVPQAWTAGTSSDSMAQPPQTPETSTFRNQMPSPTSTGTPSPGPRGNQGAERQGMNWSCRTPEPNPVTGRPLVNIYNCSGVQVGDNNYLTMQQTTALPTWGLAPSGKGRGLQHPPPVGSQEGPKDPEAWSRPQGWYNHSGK
Summary of the method: as §1

U937 cells = experiment: Counter screen: U937 cell viability without TSQ cocktail (off-target effect); design: species or system human; conditions: Homo sapiens, U-937, compound without TSQ cocktail, read-out: Off-target effect (IC50 cell-based assay)
Summary of the method: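 U937 cells (20,000/well) exposed to compound (10-point 1:3 titration from 36 μM, 0.3% DMSO) without TSQ cocktail for 48 h at 37 °C/5% CO2. Viability read as ATP by CellTiter-Glo luminescence; IC50 from 4-parameter logistic fit.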

[1] = system: U937 human histiocytic leukemia cell line; experiment: Inhibition of TSQ induced necroptosis in U937 cells (CellTitre-Glo); conditions: Homo sapiens, U-937, TSQ cocktail (TNF, Smac mimetic, Q-VD-OPh), 48 hours, read-out: Inhibition of TSQ-induced necroptosis (IC50 cell-based assay)
Summary of the method: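 U937 cells (20000/well) treated with compound (10-point, 1:3 from 36 μM, 0.3% DMSO) plus TSQ cocktail (hTNF-Fc 100 ng/ml, Smac mimetic 500 nM, Q-VD-OPh 10 μM), 48 h at 37 °C. Viability by CellTiter-Glo luminescence; IC50 from 4-parameter logistic fit. Counter screen: same cells without TSQ.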

human RIPK1, sequence (Q13546 whole entry): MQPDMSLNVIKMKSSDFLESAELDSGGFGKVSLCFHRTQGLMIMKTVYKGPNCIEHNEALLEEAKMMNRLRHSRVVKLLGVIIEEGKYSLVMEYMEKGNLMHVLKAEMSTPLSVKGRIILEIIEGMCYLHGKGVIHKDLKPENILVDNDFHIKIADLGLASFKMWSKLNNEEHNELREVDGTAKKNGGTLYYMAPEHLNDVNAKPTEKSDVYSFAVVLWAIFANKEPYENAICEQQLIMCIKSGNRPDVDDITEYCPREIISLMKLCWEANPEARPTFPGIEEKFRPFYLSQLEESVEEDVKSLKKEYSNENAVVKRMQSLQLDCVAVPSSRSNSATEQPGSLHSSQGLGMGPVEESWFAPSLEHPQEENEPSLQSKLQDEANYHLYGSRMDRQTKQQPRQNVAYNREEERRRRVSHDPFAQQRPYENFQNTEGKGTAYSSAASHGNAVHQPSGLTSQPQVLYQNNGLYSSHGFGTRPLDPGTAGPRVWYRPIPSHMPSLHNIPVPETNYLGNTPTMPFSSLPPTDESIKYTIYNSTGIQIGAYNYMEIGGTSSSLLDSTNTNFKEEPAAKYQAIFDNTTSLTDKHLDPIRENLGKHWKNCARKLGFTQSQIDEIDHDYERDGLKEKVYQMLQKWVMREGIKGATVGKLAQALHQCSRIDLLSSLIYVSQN

Row | SMILES | Kd (human RIPK1) [nM] | Kd (human MLKL (full length)) [nM] | Kd (human RIPK3) [nM] | IC50 (U937 cells) [nM] | IC50 [1] [nM]
1 | C[C@H](Oc1cc(-c2nn(C)c3c(-c4cnn(C(F)F)c4)cnc(N)c23)ccc1NS(=O)(=O)C(F)F)c1ccc(F)cc1 [Compound 123, (S)-N-(4-(4-amino-7-(1-(difluoromethyl)-1H-pyrazol-4-yl)-1-methyl-1H-pyrazolo[4,3-c]pyridin-3-yl)-2-(1-(4-fluorophenyl)ethoxy)phenyl)-1,1-difluoromethanesulfonamide] | > 10000 | < 1 | > 10000 | > 10000 | < 10
2 | C[C@H](Oc1cc(-c2nn(C)c3c(-c4cnn(CCN5CC(C)(C)C5)c4)cnc(N)c23)ccc1NS(=O)(=O)C(F)F)c1ccc(F)cc1 [Compound 75, (S)-N-(4-(4-amino-7-(1-(2-(3,3-dimethylazetidin-1-yl)ethyl)-1H-pyrazol-4-yl)-1-methyl-1H-pyrazolo[4,3-c]pyridin-3-yl)-2-(1-(4-fluorophenyl)ethoxy)phenyl)-1,1-difluoromethanesulfonamide] | > 10000 | < 1 | > 10000 | > 10000 | < 10
3 | CC(C)n1nc(-c2ccc(NS(=O)(=O)C(F)F)c(O[C@@H](C)c3ccc(F)cc3)c2)c2c(N)ncc(-c3cnn(C4CCOCC4)c3)c21 [Compound 51, (S)-N-(4-(4-amino-1-isopropyl-7-(1-(tetrahydro-2H-pyran-4-yl)-1H-pyrazol-4-yl)-1H-pyrazolo[4,3-c]pyridin-3-yl)-2-(1-(4-fluorophenyl)ethoxy)phenyl)-1,1-difluoromethanesulfonamide] | > 10000 | 1 to 100 | > 10000 | > 10000 | 10 to 1000
4 | C[C@H](Oc1cc(-c2nn(C)c3c(-c4cnn(C5CNC5)c4)cnc(N)c23)ccc1NS(=O)(=O)C(F)F)c1ccc(F)cc1 [Compound 94, (S)-N-(4-(4-amino-7-(1-(azetidin-3-yl)-1H-pyrazol-4-yl)-1-methyl-1H-pyrazolo[4,3-c]pyridin-3-yl)-2-(1-(4-fluorophenyl)ethoxy)phenyl)-1,1-difluoromethanesulfonamide] | > 10000 | < 1 | > 10000 | > 10000 | 10 to 1000
5 | COc1ccc(-c2cnc(N)c3c(-c4ccc(NS(=O)(=O)C(F)F)c(O[C@@H](C)c5ccc(F)cc5)c4)nn(C)c23)cn1 [Compound 28, (S)-N-(4-(4-amino-7-(6-methoxypyridin-3-yl)-1-methyl-1H-pyrazolo[4,3-c]pyridin-3-yl)-2-(1-(4-fluorophenyl)ethoxy)phenyl)-1,1-difluoromethanesulfonamide] | > 10000 | < 1 | > 10000 | > 10000 | 10 to 1000
6 | C[C@H](Oc1cc(-c2cnn3c(-c4cnn(CCO)c4)cnc(N)c23)ccc1NS(=O)(=O)C(F)F)c1ccc(F)cc1 [Compound 37, (S)-N-(4-(4-amino-7-(1-(2-hydroxyethyl)-1H-pyrazol-4-yl)pyrazolo[1,5-a]pyrazin-3-yl)-2-(1-(4-fluorophenyl)ethoxy)phenyl)-1,1-difluoromethanesulfonamide] | > 10000 | < 1 | > 10000 | > 10000 | 10 to 1000
7 | CNCCn1cc(-c2cnc(N)c3c(-c4ccc(NS(=O)(=O)C(F)F)c(O[C@@H](C)c5ccc(F)cc5)c4)nn(C)c23)cn1 [Compound 82, (S)-N-(4-(4-amino-1-methyl-7-(1-(2-(methylamino)ethyl)-1H-pyrazol-4-yl)-1H-pyrazolo[4,3-c]pyridin-3-yl)-2-(1-(4-fluorophenyl)ethoxy)phenyl)-1,1-difluoromethanesulfonamide] | > 10000 | < 1 | > 10000 | > 10000 | 10 to 1000

Continued, in another order:

Row | Kd (human RIPK1) [nM] | Kd (human MLKL (full length)) [nM] | Kd (human RIPK3) [nM] | SMILES | IC50 (U937 cells) [nM] | IC50 [1] [nM]
8 | > 10000 | 1 to 100 | > 10000 | C[C@H](Oc1cc(-c2nn(C)c3c(C#CC4CCN(CC(F)(F)F)CC4)cnc(N)c23)ccc1NS(=O)(=O)C(F)F)c1ccc(F)cc1 [Compound 128, (S)-N-(4-(4-amino-1-methyl-7-((1-(2,2,2-trifluoroethyl)piperidin-4-yl)ethynyl)-1H-pyrazolo[4,3-c]pyridin-3-yl)-2-(1-(4-fluorophenyl)ethoxy)phenyl)-1,1-difluoromethanesulfonamide] | > 10000 | 10 to 1000
9 | > 10000 | 1 to 100 | > 10000 | C[C@H](Oc1cc(-c2nn(C)c3c(-c4ccc(N5CCOCC5)nc4)cnc(N)c23)ccc1NS(=O)(=O)C(F)F)c1ccc(F)cc1 [Compound 115, (S)-N-(4-(4-amino-1-methyl-7-(6-morpholinopyridin-3-yl)-1H-pyrazolo[4,3-c]pyridin-3-yl)-2-(1-(4-fluorophenyl)ethoxy)phenyl)-1,1-difluoromethanesulfonamide] | > 10000 | 10 to 1000
10 | > 10000 | < 1 | > 10000 | C[C@H](Oc1cc(-c2nn(C)c3c(-c4cccnc4)cnc(N)c23)ccc1NS(=O)(=O)C(F)F)c1ccc(F)cc1 [Compound 25, (S)-N-(4-(4-amino-1-methyl-7-(pyridin-3-yl)-1H-pyrazolo[4,3-c]pyridin-3-yl)-2-(1-(4-fluorophenyl)ethoxy)phenyl)-1,1-difluoromethanesulfonamide] | > 10000 | 10 to 1000
11 | > 10000 | 1 to 100 | > 10000 | CNc1ncc(-n2cc(-c3cnc(N)c4c(-c5ccc(NS(=O)(=O)C(F)F)c(O[C@@H](C)c6ccc(F)cc6)c5)nn(C)c34)cn2)cn1 [Compound 138, (S)-N-(4-(4-amino-1-methyl-7-(1-(2-(methylamino)pyrimidin-5-yl)-1H-pyrazol-4-yl)-1H-pyrazolo[4,3-c]pyridin-3-yl)-2-(1-(4-fluorophenyl)ethoxy)phenyl)-1,1-difluoromethanesulfonamide] | > 10000 | 10 to 1000
12 | > 10000 | < 1 | > 10000 | C[C@H](Oc1cc(-c2nn(C)c3c(-c4cnc(N)nc4)cnc(N)c23)ccc1NS(=O)(=O)C(F)F)c1ccc(F)cc1 [Compound 108, (S)-N-(4-(4-amino-7-(2-aminopyrimidin-5-yl)-1-methyl-1H-pyrazolo[4,3-c]pyridin-3-yl)-2-(1-(4-fluorophenyl)ethoxy)phenyl)-1,1-difluoromethanesulfonamide] | > 10000 | 10 to 1000
13 | > 10000 | < 1 | > 10000 | COCC(Oc1cc(-c2nn(C)c3c(-c4cnn(C5CCOCC5)c4)cnc(N)c23)ccc1NS(=O)(=O)C(F)F)c1ccc(F)cc1 (racemic) [Compound 102, N-(4-(4-amino-1-methyl-7-(1-(tetrahydro-2H-pyran-4-yl)-1H-pyrazol-4-yl)-1H-pyrazolo[4,3-c]pyridin-3-yl)-2-(1-(4-fluorophenyl)-2-methoxyethoxy)phenyl)-1,1-difluoromethanesulfonamide] | > 10000 | 10 to 1000
14 | > 10000 | 1 to 100 | > 10000 | C[C@H](Oc1cc(-c2nn(C)c3c(C4=CCOCC4)cnc(N)c23)ccc1NS(=O)(=O)C(F)F)c1ccc(F)cc1 [Compound 43, (S)-N-(4-(4-amino-7-(3,6-dihydro-2H-pyran-4-yl)-1-methyl-1H-pyrazolo[4,3-c]pyridin-3-yl)-2-(1-(4-fluorophenyl)ethoxy)phenyl)-1,1-difluoromethanesulfonamide] | > 10000 | 10 to 1000
15 | > 10000 | 1 to 100 | > 10000 | C[C@H](Oc1cc(-c2nn(C)c3c(-c4cccc(Cl)c4)cnc(N)c23)ccc1NS(=O)(=O)C(F)F)c1ccc(F)cc1 [Compound 84, (S)-N-(4-(4-amino-7-(3-chlorophenyl)-1-methyl-1H-pyrazolo[4,3-c]pyridin-3-yl)-2-(1-(4-fluorophenyl)ethoxy)phenyl)-1,1-difluoromethanesulfonamide] | > 10000 | 1000 to 10000
16 | > 10000 | < 1 | > 10000 | C[C@H](Oc1cc(-c2nn(C)c3c(C4=CCN(C)CC4)cnc(N)c23)ccc1NS(=O)(=O)C(F)F)c1ccc(F)cc1 [Compound 21, (S)-N-(4-(4-amino-1-methyl-7-(1-methyl-1,2,3,6-tetrahydropyridin-4-yl)-1H-pyrazolo[4,3-c]pyridin-3-yl)-2-(1-(4-fluorophenyl)ethoxy)phenyl)-1,1-difluoromethanesulfonamide] | > 10000 | 1000 to 10000
17 | > 10000 | 1 to 100 | > 10000 | CC1CNCC(n2cc(-c3cnc(N)c4c(-c5ccc(NS(=O)(=O)C(F)F)c(O[C@@H](C)c6ccc(F)cc6)c5)nn(C)c34)cn2)C1 (stereo partly drawn) [Compound 95, N-(4-(4-amino-1-methyl-7-(1-(5-methylpiperidin-3-yl)-1H-pyrazol-4-yl)-1H-pyrazolo[4,3-c]pyridin-3-yl)-2-((S)-1-(4-fluorophenyl)ethoxy)phenyl)-1,1-difluoromethanesulfonamide] | > 10000 | 10 to 1000

Reference: patent publication US20250059188A1, “ARYLSULPHONAMIDE COMPOUNDS” (Anaxis Pharma Pty Ltd, priority 2021, published 2025)
